Positions count from the first letter of the chain named. Read-outs that look alike come from different tables or passages of the source.
Key:
RET (658-1114) = target: T1, RET (658-1114) (Homo sapiens, UniProt P07949); experiment: HiBiT-Degradation, RET wild-type degradation assay (Nano-Glo HiBiT Lytic), 293T.144 cells; format: cell-based; settings: HiBiT-Degradation; for DC50 / Emax: 6.0 hours; for DC50: read-out: 293T.144 RET (658-1114) 6.0 hours (DC50); for Emax: read-out: 293T.144 RET (658-1114) 6.0 hours (Emax)
T1 construct: 658-1114; expressed in transfected cells; host or cells: 293T.144 (293T cells, generated in-house)
T1 sequence (P07949 658-1114): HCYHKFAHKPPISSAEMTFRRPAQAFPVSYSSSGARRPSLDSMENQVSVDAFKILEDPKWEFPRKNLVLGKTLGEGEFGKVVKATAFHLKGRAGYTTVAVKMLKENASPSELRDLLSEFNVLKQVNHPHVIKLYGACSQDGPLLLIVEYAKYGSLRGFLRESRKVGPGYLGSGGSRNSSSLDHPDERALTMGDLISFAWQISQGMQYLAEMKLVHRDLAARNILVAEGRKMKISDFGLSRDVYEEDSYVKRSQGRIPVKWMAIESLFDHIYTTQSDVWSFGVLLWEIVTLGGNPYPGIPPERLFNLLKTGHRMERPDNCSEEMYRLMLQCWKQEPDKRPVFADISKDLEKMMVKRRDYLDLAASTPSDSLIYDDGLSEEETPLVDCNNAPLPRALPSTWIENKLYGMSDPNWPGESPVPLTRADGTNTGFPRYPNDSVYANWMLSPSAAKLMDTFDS
Method in brief: (§1)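 Engineered 293T cells carry a HiBiT tag on the RET kinase domain, either wild type (line 293T.144) or G810R (line 293T.165). Compounds act for 6 h across a 10 μM-top, half-log 11-point range. Lytic HiBiT luminescence gives remaining protein, fitted for DC50 and Emax.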

RET(KD: 658-1114 G810R) = target: T2, RET(KD: 658-1114 G810R) (Homo sapiens, UniProt P07949, G810R); experiment: HiBiT-Degradation, RET G810R degradation assay (Nano-Glo HiBiT Lytic), 293T.165 cells; format: cell-based; settings: for Emax / DC50: 6.0 hours; for Emax: % remaining protein, read-out: 293T.165 RET(KD: 658-1114 G810R) 6.0 hours (Emax); for DC50: read-out: 293T.165 RET(KD: 658-1114 G810R) 6.0 hours (DC50)
T2 construct: 658-1114; expressed in transfected cells; host or cells: 293T.165 (293T cells, generated in-house)
T2 sequence (P07949 658-1114 G810R): T1 sequence (P07949 658-1114) with G153R
Method in brief: as §1

[1] = half-maximal degradation concentration

| Compound | 293T.144 RET (658-1114) 6.0 hours (IP) [nM] (RET (658-1114)) | DC50 (RET (658-1114)) | Emax (RET (658-1114)) | Emax (RET(KD: 658-1114 G810R)) | DC50 (RET(KD: 658-1114 G810R); [1]) | 293T.165 RET(KD: 658-1114 G810R) 6.0 hours (Emax) (RET(KD: 658-1114 G810R); HiBiT-Degradation) | 293T.165 RET(KD: 658-1114 G810R) 6.0 hours (IP) [nM] (RET(KD: 658-1114 G810R); HiBiT-Degradation) | DC50 (RET(KD: 658-1114 G810R); HiBiT-Degradation) |
| --- | --- | --- | --- | --- | --- | --- | --- | --- |
| CCC1(C(=O)NC(C)C)CCN(c2ccc(-c3cc(-c4cnn(C5CCN(C(=O)CN6CCC(c7ccc(NC8CCC(=O)NC8=O)cc7F)CC6)CC5)c4)cn4ncc(C#N)c34)cn2)CC1 (stereo not drawn) [Compound 3, 1-(5-(3-Cyano-6-(1-(1-(2-(4-(4-((2,6-dioxopiperidin-3-yl)amino)-2-fluorophenyl)piperidin-1-yl)acetyl)piperidin-4-yl)-1H-pyrazol-4-yl)pyrazolo[1,5-a]pyridin-4-yl)pyridin-2-yl)-4-ethyl-N-isopropylpiperidine-4-carboxamide] | ++++ (< 50 nM = ++++) | < 50 nM | < 30% | < 30% | < 50 nM | ++++ (< 30% = ++++) | ++++ (< 50 nM = ++++) | < 50 nM |
| N#Cc1cnn2cc(-c3cnn(C4CCN(C(=O)CN5CCC(c6ccc(NC7CCC(=O)NC7=O)cc6F)CC5)CC4)c3)cc(-c3ccc(N4CCN(C(=O)Cc5ccc(F)cn5)CC4)nc3)c12 (stereo not drawn) [Compound 5, 6-[1-[1-[2-[4-[4-[(2,6-dioxo-3-piperidyl)amino]-2-fluoro-phenyl]-1-piperidyl]acetyl]-4-piperidyl]pyrazol-4-yl]-4-[6-[4-[2-(5-fluoro-2-pyridyl)acetyl]piperazin-1-yl]-3-pyridyl]pyrazolo[1,5-a]pyridine-3-carbonitrile] | ++++ (< 50 nM = ++++) | < 50 nM | < 30% | < 30% | < 50 nM | ++++ (< 30% = ++++) | ++++ (< 50 nM = ++++) | < 50 nM |
| COC1(C(=O)NC(C)C)CCN(c2ccc(-c3cc(-c4cnn(C5CCN(C(=O)CN6CCC(c7ccc(NC8CCC(=O)NC8=O)cc7F)CC6)CC5)c4)cn4ncc(C#N)c34)cn2)CC1 (stereo not drawn) [Compound 6, 1-[5-[3-cyano-6-[1-[1-[2-[4-[4-[(2,6-dioxo-3-piperidyl)amino]-2-fluoro-phenyl]-1-piperidyl]acetyl]-4-piperidyl]pyrazol-4-yl]pyrazolo[1,5-a]pyridin-4-yl]-2-pyridyl]-N-isopropyl-4-methoxy-piperidine-4-carboxamide] | ++++ (< 50 nM = ++++) | < 50 nM | < 30% | < 50% | < 50 nM | +++ (<50% = +++) | ++++ (< 50 nM = ++++) | < 50 nM |
| CCC1(C(=O)NC2CCC2)CCN(c2ccc(-c3cc(-c4cnn(C5CCN(C(=O)CN6CCC(c7ccc(NC8CCC(=O)NC8=O)cc7F)CC6)CC5)c4)cn4ncc(C#N)c34)cn2)CC1 (stereo not drawn) [Compound 8, 1-(5-(3-Cyano-6-(1-(1-(2-(4-(4-((2,6-dioxopiperidin-3-yl)amino)-2-fluorophenyl)piperidin-1-yl)acetyl)piperidin-4-yl)-1H-pyrazol-4-yl)pyrazolo[1,5-a]pyridin-4-yl)pyridin-2-yl)-N-cyclobutyl-4-ethylpiperidine-4-carboxamide] | ++++ (< 50 nM = ++++) | < 50 nM | < 30% | < 30% | < 50 nM | ++++ (< 30% = ++++) | ++++ (< 50 nM = ++++) | < 50 nM |
| CCC1(C(=O)NC(C)C)CCN(c2ccc(-c3nc(-c4cnn(C5CCN(C(=O)CN6C7CCC6CC(c6ccc(NC8CCC(=O)NC8=O)cc6)C7)CC5)c4)cn4ncc(C#N)c34)cn2)CC1 (stereo not drawn) [Compound 9, 1-[5-[3-cyano-6-[1-[1-[2-[3-[4-[(2,6-dioxo-3-piperidyl)amino]phenyl]-8-azabicyclo[3.2.1]octan-8-yl]acetyl]-4-piperidyl]pyrazol-4-yl]pyrazolo[1,5-a]pyrazin-4-yl]-2-pyridyl]-4-ethyl-N-isopropyl-piperidine-4-carboxamide] | ++++ (< 50 nM = ++++) | < 50 nM | < 30% | < 30% | < 100 nM | ++++ (< 30% = ++++) | ++++ (< 50 nM = ++++) | < 100 nM |

More lines, now with the values ahead:

| 293T.144 RET (658-1114) 6.0 hours (IP) [nM] (RET (658-1114)) | DC50 (RET (658-1114)) | Emax (RET (658-1114)) | Emax (RET(KD: 658-1114 G810R)) | DC50 (RET(KD: 658-1114 G810R); [1]) | 293T.165 RET(KD: 658-1114 G810R) 6.0 hours (Emax) (RET(KD: 658-1114 G810R); HiBiT-Degradation) | 293T.165 RET(KD: 658-1114 G810R) 6.0 hours (IP) [nM] (RET(KD: 658-1114 G810R); HiBiT-Degradation) | DC50 (RET(KD: 658-1114 G810R); HiBiT-Degradation) | Compound |
| --- | --- | --- | --- | --- | --- | --- | --- | --- |
| ++++ (< 50 nM = ++++) | < 50 nM | < 30% | < 50% | < 50 nM | +++ (<50% = +++) | ++++ (< 50 nM = ++++) | < 50 nM | C[C@H](c1ccccn1)N1CCN(c2ccc(-c3nc(-c4cnn(C5CCN(C(=O)CC6(O)CCN(c7ccc(NC8CCC(=O)NC8=O)cc7F)CC6)CC5)c4)cn4ncc(C#N)c34)cn2)CC1 (stereo partly drawn) [Compound 1, 6-[1-[1-[2-[1-[4-[(2,6-dioxo-3-piperidyl)amino]-2-fluoro-phenyl]-4-hydroxy-4-piperidyl]acetyl]-4-piperidyl]pyrazol-4-yl]-4-[6-[4-[(1R)-1-(2-pyridyl)ethyl]piperazin-1-yl]-3-pyridyl]pyrazolo[1,5-a]pyrazine-3-carbonitrile] |
| ++++ (< 50 nM = ++++) | < 50 nM | < 30% | < 50% | < 50 nM | +++ (<50% = +++) | ++++ (< 50 nM = ++++) | < 50 nM | CC(C)NC(=O)C1(C)CCN(c2ccc(-c3cc(-c4cnn(C5CCN(C(=O)CN6CCC(c7ccc(NC8CCC(=O)NC8=O)cc7F)CC6)CC5)c4)cn4ncc(C#N)c34)cn2)CC1 (stereo not drawn) [Compound 2, 1-(5-(3-Cyano-6-(1-(1-(2-(4-(4-((2,6-dioxopiperidin-3-yl)amino)-2-fluorophenyl)piperidin-1-yl)acetyl)piperidin-4-yl)-1H-pyrazol-4-yl)pyrazolo[1,5-a]pyridin-4-yl)pyridin-2-yl)-N-isopropyl-4-methylpiperidine-4-carboxamide] |
| ++++ (< 50 nM = ++++) | < 50 nM | < 30% | < 30% | < 50 nM | ++++ (< 30% = ++++) | ++++ (< 50 nM = ++++) | < 50 nM | CCC1(C(=O)NC(C)C)CCN(c2ccc(-c3cc(-c4cnn(C5CCN(C(=O)CC6(O)CCN(c7ccc(NC8CCC(=O)NC8=O)cc7F)CC6)CC5)c4)cn4ncc(C#N)c34)cn2)CC1 (stereo not drawn) [Compound 4, 1-[5-[3-cyano-6-[1-[1-[2-[1-[4-[(2,6-dioxo-3-piperidyl)amino]-2-fluoro-phenyl]-4-hydroxy-4-piperidyl]acetyl]-4-piperidyl]pyrazol-4-yl]pyrazolo[1,5-a]pyridin-4-yl]-2-pyridyl]-4-ethyl-N-isopropyl-piperidine-4-carboxamide] |
| ++++ (< 50 nM = ++++) | < 50 nM | < 30% | < 50% | < 100 nM | +++ (<50% = +++) | ++++ (< 50 nM = ++++) | < 100 nM | N#Cc1cnn2cc(-c3cnn(C4CCN(CCN5CCC(c6ccc(NC7CCC(=O)NC7=O)cc6F)CC5)CC4)c3)cc(-c3ccc(N4CCN(Cc5ccccn5)CC4)nc3)c12 (stereo not drawn) [Compound 12, 6-(1-(1-(2-(4-(4-((2,6-Dioxopiperidin-3-yl)amino)-2-fluorophenyl)piperidin-1-yl)ethyl)piperidin-4-yl)-1H-pyrazol-4-yl)-4-(6-(4-(pyridin-2-ylmethyl)piperazin-1-yl)pyridin-3-yl)pyrazolo[1,5-a]pyridine-3-carbonitrile] |

— patent US12661410B2, “Compounds for targeted degradation of RET” (C4 Therapeutics, Inc., priority 2020, dated 2026)
